Legend:
ICR mice [1] = assay: Tail suspension test (TST), Example 39; assay type: in vivo; details: gavage 10 mg/Kg for 6 days, t-test
Text: Tail Suspension Test (TST) to Investigate the Antidepressant Activity of Some Compounds and Some Natural Products of the Present Invention
(§1) Male ICR mice (body weight, 20±2 g) used in the experiment were purchased from the Experimental Animal Center of Shanghai Institute of Materia Medica, Chinese Academy of Sciences. They were free access to water and kept at room temperature (23 2) ° C. in natural light. All mice were randomly divided into a blank control group and a test group, with 10 mice in each group and 5 mice/cage. The experiment was started after 3 days of adaptation in the breeding environment. The mice were fasted for 12 hours before the experiment but free access to water. The specific administration method was gavage administration, and the administration dose was 10 mg/Kg, and the blank control group was given an equal volume of 0.5% CMC-Na.
Specific procedures: The mice were continuously administered for 6 days, and tested 1 hour after the last administration. Firstly, the spontaneous activity of the mice was measured by the open field method, that is, the mice were individually placed in a cylindrical glass jar for 4 minutes, and the number of lifting arms within the last 2 minutes was recorded. Then the tail of the mice was stick onto the horizontal bar by the tape at 2 cm from the tip of the tail, and the animal eyesight was separated by the surrounding plates. The horizontal bar was about 25 cm from the ground, so that the mouse was about 10 cm from the ground, and the timing was 6 min. The cumulative immobility time within the last 4 minutes was recorded. Each group of mice was operated in parallel.
Experimental data processing: The experimental results were expressed as mean standard error (x SD). Statistical analysis was performed using t-test to determine whether it was significant. […] Then, the t-test was performed on the experimental index of tail suspension test to determine whether it had antidepressant effect.

ICR mice [2] = assay: Forced swimming test (FST), Example 38; assay type: in vivo; details: gavage 10 mg/Kg for 6 days, t-test
Text: Forced swimming test (FST) to investigate the antidepressant activity of some compounds and some natural products of the present invention
as §1, with “dose of the administration group” for “dose”
Specific procedures: The mice were continuously administered for 6 days, and tested 1 hour after the last administration. Firstly, the spontaneous activity of the mice was measured by the open field method, that is, the mice were individually placed in a cylindrical glass jar for 4 minutes, and the number of lifting arms within the last two minutes was recorded. The mice were then individually placed in a cylindrical glass jar (20 cm high and 14 cm in diameter) with a water depth of 10 cm and a water temperature of 23° C. to 25° C. After mice entered into water, a 6-minute timing was conducted, the cumulative immobility time (the criteria for determining immobility: the mice stopped struggling in the water, or floated with only small limb movements to keep the head float on the water) within the last four minutes was recorded. Each group of mice was operated in parallel.
Experimental data processing: The experimental results were expressed as mean standard error (x SD). Statistical analysis was performed using t-test to determine whether it was significant. […] Then, the t-test was performed on the experimental index of forced swimming to determine whether it had antidepressant effect.

[3] = Acta Pharmacologica Sinica 2014; 35 (9): 1188-1198; cited from earlier work

In the case of C[C@H]1CC[C@@]2(OC1)O[C@H]1C[C@H]3C4CC[C@@H]5C[C@@H](O[C@@H]6OC(CO)[C@H](O)[C@H](O)C6O[C@@H]6OC(CO)[C@@H](O)[C@H](O)C6O)CC[C@]5(C)C4CC[C@]3(C)C1[C@@H]2C (stereo partly drawn) [timosaponin A3, reference compound], the “effect on immobility time of mouse in tail suspension test compared with the blank group (in words)” value (ICR mice [1]) is listed as “significant antidepressant activity”, the “effect on immobility time of mice in forced swimming test compared with the blank group (in words)” value (ICR mice [2]) is listed as “could not significantly reduce the immobility time” and the toxicity [3] is listed as “significant toxicity”.

Source: patent US11142543B2 (priority 2016, dated 2021)
